From PMC8394243 (Biomolecules, 2021)
Ends that are not written are not given here.

Legend:
[1] = test system: human sputum leucocyte elastase (neutrophil elastase, NE); assay: 500 nM of NE in 1 X TBS; details: 37 °C, up to four hours
[2] = SDS-PAGE; for Effect of pefabloc (serine protease inhibitor) on degradation in CF sputum, 4 h / Effect of pefabloc (serine protease inhibitor) on degradation in CF sputum, 24 h: 1 mM pefabloc pre-incubated 30 min with sputum (100-fold in TBS)
Procedure: Sputum from Pseudomonas-infected CF patients was obtained anonymously from the adult CF Centre at Belfast City Hospital. Sputum samples were in excess to requirements for diagnostic purposes. Permission to use sputum samples, which would have been disposed of, for validation purposes was given by the Director of R&D, Belfast Health and Social Care Trust. Sputum was frozen immediately at −80 °C and used the next day after thawing at room temperature.
Samples were transferred to a fresh Eppendorf at regular time-points (0, 1, 2, 3, 4, 18 and 24, as appropriate) and boiled on a heat block at 95 °C for ten minutes to terminate the reaction. […] CF sputum (diluted 100-fold in 1X TBS) was incubated with 0.1 mM E64, 5 mM EDTA or 1 mM pefabloc for 30 min prior to addition of peptides. Following the addition of peptide, the samples were incubated for four or 24 h at 37 °C. An aliquot was taken at 0, 4 or 24 h and boiled for ten minutes at 95 °C to terminate the reaction. Samples were stored at 4 °C until analysed by SDS-PAGE.
Peptide samples were separated by sodium dodecyl sulphate-polyacrylamide gel electrophoresis (SDS-PAGE) under denaturing and reducing conditions using 4–12% Invitrogen NuPAGE Novex Bis-Tris precast gels (Thermo Fisher Scientific, Loughborough, UK) and the Invitrogen XCell SureLock Mini-Cell (Thermo Fisher Scientific, Loughborough, UK). An aliquot of 10 μL peptide samples was incubated with 4 μL NuPAGE lithium dodecyl sulphate (LDS) sample buffer (Thermo Fisher Scientific) and 2 μL of 500 nM dithiothreitol (DTT) (Fluorochem, Hadfield, UK) for ten minutes at 95 °C and 15 μL of sample mixture loaded per lane and 5 μL of SeeBlue Plus2 pre-stained protein standard (Thermo Fisher Scientific, Loughborough, UK) loaded in at least one lane. The samples were run using 1X 2-morpholinoethanesulfonic acid (MES)-SDS running buffer (Thermo Fisher Scientific, Loughborough, UK). Electrophoresis was performed under a constant current of 125 mA for 40–60 min. The gel was stained using Biosafe Coomassie Brilliant Blue G-250 stain (Biorad, Watford, UK) for 60 min, washed and destained in water overnight and imaged using a Syngene G:box and GeneSnap software (Syngene, Cambridge, UK).

[3] = target: human sputum leucocyte elastase (neutrophil elastase, NE) (Homo sapiens, UniProt P08246); details: 500 nM NE, 37 °C, 0-4 h, hourly samples; peptide 500 μg/mL or parental molar equivalent (160 or 120 μM); SDS-PAGE, Coomassie, visual
Procedure: The method for reaction termination was dependent on subsequent experiments/analysis. For samples intended for investigation of peptide activity using in vitro experiments the reaction was terminated via addition of 1 mM of the serine protease inhibitor pefabloc (Merck, Gillingham, UK), which was added to all groups including the NE alone groups. Samples intended for peptide degradation analysis via SDS-PAGE or mass spectrometry were boiled at 95 °C for ten minutes using a heat block to terminate the reaction.
Peptide samples were separated by sodium dodecyl sulphate-polyacrylamide gel electrophoresis (SDS-PAGE) under denaturing and reducing conditions using 4–12% Invitrogen NuPAGE Novex Bis-Tris precast gels (Thermo Fisher Scientific, Loughborough, UK) and the Invitrogen XCell SureLock Mini-Cell (Thermo Fisher Scientific, Loughborough, UK). An aliquot of 10 μL peptide samples was incubated with 4 μL NuPAGE lithium dodecyl sulphate (LDS) sample buffer (Thermo Fisher Scientific) and 2 μL of […] dithiothreitol (DTT) (Fluorochem, Hadfield, UK) for ten minutes at 95 °C and 15 μL of sample mixture loaded per lane and 5 μL of SeeBlue Plus2 pre-stained protein standard (Thermo Fisher Scientific, Loughborough, UK) loaded in at least one lane. The samples were run using 1X 2-morpholinoethanesulfonic acid (MES)-SDS running buffer (Thermo Fisher Scientific, Loughborough, UK). Electrophoresis was performed under a constant current of 125 mA for 40–60 min. The gel was stained using Biosafe Coomassie Brilliant Blue G-250 stain (Biorad, Watford, UK) for 60 min, washed and destained in water overnight and imaged using a Syngene G:box and GeneSnap software (Syngene, Cambridge, UK).

neutrophil elastase = neutrophil elastase (Homo sapiens, UniProt P08246); details: 500 μg/mL peptide, 500 nM NE in 1X TBS, 4 h, 37 °C; MALDI-TOF-MS
Procedure: The method for reaction termination was dependent on subsequent experiments/analysis. […] Samples intended for peptide degradation analysis via SDS-PAGE or mass spectrometry were boiled at 95 °C for ten minutes using a heat block to terminate the reaction.
This service was provided by the University of Dundee (Dundee, UK).

[4] = CF sputum (diluted 100-fold in 1X tris-buffered saline (TBS)); details: CF patients, 37 °C, up to four hours
[5] = 5 mM EDTA pre-incubated 30 min with sputum (100-fold in TBS), then peptide 24 h at 37 °C

human sputum leucocyte elastase (neutrophil elastase, NE) (Homo sapiens, UniProt P08246), sequence (P08246 30-247 limits assumed): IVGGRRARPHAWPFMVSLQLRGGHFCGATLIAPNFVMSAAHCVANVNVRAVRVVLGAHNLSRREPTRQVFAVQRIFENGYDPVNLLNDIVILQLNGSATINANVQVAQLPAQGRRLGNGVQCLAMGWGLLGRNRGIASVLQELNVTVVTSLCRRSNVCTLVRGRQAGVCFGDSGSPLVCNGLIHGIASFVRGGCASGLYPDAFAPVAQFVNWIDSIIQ
neutrophil elastase, sequence (P08246 30-247 limits assumed): as above

Sequence: KRFKKFFKKLKNSVKKRAKKFFKKPRVIGVSIPF
- cleaved bond [1]: V-K and I-G

Sequence: KFFKRLLKSVRRAVKKFRKKPRLIGLSTLL [Sn1]
- Effect of pefabloc (serine protease inhibitor) on degradation in CF sputum, 4 h ([2]; then peptide 4 h at 37 °C): prevented only by the inhibitor pefabloc

Sequence: KRFKKFFKKLKNSVKKRAKKFFKKPRVIGVSIPF [SnE1]
- Cleavage by neutrophil elastase [3]: gradual transition from one band of larger molecular weight to one or more bands of smaller molecular weight
- Neutrophil elastase cleavage sites (peptide cleaved after each site marked) (neutrophil elastase): KRFKKFFKKLKNSV│[…]│GVSIPF

Sequence: KRFKKFFKRLLKSV [Sn1bN]
- Cleavage by neutrophil elastase [3]: did not result in obvious cleavage

Sequence: KRFKKFFKRLLKSV
- not cleaved [4]: did not exhibit obvious degradation when incubated with CF sputum after 4 h

Sequence: KRFKKFFKRLLKSVRRAVKKFRKK [Sn1b]
- Cleavage by neutrophil elastase [3]: rapidly cleaved
- Effect of EDTA (MMP inhibitor) on degradation in CF sputum, 4 h ([2]; 5 mM EDTA pre-incubated 30 min with sputum (100-fold in TBS), then peptide 4 h at 37 °C): inhibited

Sequence: KRFKKFFKKLKNSVKKRAKKFFKKPRVI [SnE1-F]
- Cleavage by neutrophil elastase [3]: gradual transition from one band of larger molecular weight to one or more bands of smaller molecular weight
- Effect of E64 (cysteine protease inhibitor) on degradation in CF sputum, 24 h ([2]; 0.1 mM E64 pre-incubated 30 min with sputum (100-fold in TBS), then peptide 24 h at 37 °C): did not prevent
- Effect of pefabloc (serine protease inhibitor) on degradation in CF sputum, 4 h ([2]; then peptide 4 h at 37 °C): prevented in the presence of pefabloc
- Effect of pefabloc (serine protease inhibitor) on degradation in CF sputum, 24 h ([2]; then peptide 24 h at 37 °C): prevented the degradation
- Effect of EDTA (MMP inhibitor) on degradation in CF sputum, 24 h [2, 5]: did not prevent
- Degradation in CF sputum within 4 h ([2]; CF sputum diluted 100-fold in 1X TBS, 37 °C, 0-4 h, peptide 500 μg/mL or parental molar equivalent (160 or 120 μM), Coomassie, visual): some degradation

Sequence: KRFKKFFKRLLKSVRRAVKKFRKK
- cleaved bond [1]: V-R

Sequence: KRFKKFFKKVKKSVKKRLKKIFKKPMVIGVTIPF [SnV1]
- Effect of pefabloc (serine protease inhibitor) on degradation in CF sputum, 4 h ([2]; then peptide 4 h at 37 °C): prevented only by the inhibitor pefabloc

Sequence: KRFKKFFKKVKKSVKKRLKKIFKKPMVIGVTIPF
- cleaved bond [1]: V-K and I-F

Sequence: KRFKKFFKKLKNSV [SnE1N]
- Cleavage by neutrophil elastase [3]: appeared to remain intact
- Effect of pefabloc (serine protease inhibitor) on degradation in CF sputum, 24 h ([2]; then peptide 24 h at 37 °C): prevented degradation
- Effect of EDTA (MMP inhibitor) on degradation in CF sputum, 24 h [2, 5]: prevented degradation

Sequence: KFFKRLLKSVRRAVKKFRKK [Sn1a]
- Effect of pefabloc (serine protease inhibitor) on degradation in CF sputum, 4 h ([2]; then peptide 4 h at 37 °C): prevented only by the inhibitor pefabloc
